For orientation: inhibition means the share of the control response that was lost under treatment.

Test [1] deals with T1, Type II 5α-Reductase from Human Prostate (Homo sapiens, UniProt P31213).
T1 construct: The same procedure as above was used for preparations using tissue from prostate surgery; from tissue; host or cells: human prostate tissue from surgery, homogenate, 100,000×g pellet
T1 sequence (P31213 1-254): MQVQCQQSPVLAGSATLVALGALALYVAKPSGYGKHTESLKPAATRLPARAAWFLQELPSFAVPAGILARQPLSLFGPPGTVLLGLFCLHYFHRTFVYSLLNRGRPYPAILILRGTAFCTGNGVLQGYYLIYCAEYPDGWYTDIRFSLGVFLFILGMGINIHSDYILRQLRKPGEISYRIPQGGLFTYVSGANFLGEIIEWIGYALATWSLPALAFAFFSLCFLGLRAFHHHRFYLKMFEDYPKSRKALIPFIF
In words: Human Type II 5α-reductase assay (conversion of [3H]-testosterone to 5α-reduced metabolites). It counts as biochemical. To be noted: sodium acetate pH 5.5, 25°, 30 min, compared to control reaction mixtures; for inhibition at 0.3 µM: pH 5.5, 0.3 μM, read-out: percent inhibition of Type II AR; for percent inhibition of Type II AR: 0.3 μM.

For test [2], the target named is T2, Type I 5α-Reductase from Human Scalp (Homo sapiens, UniProt P18405).
T2 construct: Scalp punch biopsies from graft recipient sites were obtained from human hair transplant procedures; from tissue; host or cells: human scalp punch biopsies (hair transplant graft recipient sites), homogenate, 100,000×g pellet
T2 sequence (P18405 1-259): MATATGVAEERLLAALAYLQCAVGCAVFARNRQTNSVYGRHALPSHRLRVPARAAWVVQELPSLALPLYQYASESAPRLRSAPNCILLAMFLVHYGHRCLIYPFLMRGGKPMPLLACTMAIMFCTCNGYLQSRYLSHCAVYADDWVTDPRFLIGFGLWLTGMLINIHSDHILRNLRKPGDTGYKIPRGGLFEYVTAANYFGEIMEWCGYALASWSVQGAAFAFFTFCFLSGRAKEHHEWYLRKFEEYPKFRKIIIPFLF
Briefly: Human Type I 5α-reductase assay (conversion of [3H]-testosterone to 5α-reduced metabolites). To be noted: pH 7.5, 0.3 μM; 50 nM [3H]-testosterone, pH 7.5, 25°, 180 min; compared to control reaction mixtures; read-out: percent inhibition of Type I AR. It counts as biochemical.

As for `CN1C(=O)CC[C@]2(C)c3ccc(Sc4ccc5cc([N+](=O)[O-])ccc5n4)cc3CC[C@@H]12` [Example 168, (+)-(4aR)-(10bR)-4-methyl-8-(6-nitro-2-quinolinylthio)-10b-methyl-1,2,3,4,4a,5,6,10b-octahydrobenzo[f]quinolin-3-one], the inhibition at 0.3 µM came to 41% in test [1] and 85% in test [2].
For `CN1C(=O)CC[C@]2(C)c3ccc(Sc4ccc5c([N+](=O)[O-])cccc5n4)cc3CC[C@@H]12` [Example 169, (+)-(4aR)-(10bR)-4-methyl-8-(5-nitro-2-quinolinylthio)-10b-methyl-1,2,3,4,4a,5,6,10b-octahydrobenzo[f]quinolin-3-one], in that order: 61% and 75%.
Regarding `CN1C(=O)CC[C@]2(C)c3ccc(Sc4ccc(-c5ccccc5)nn4)cc3CC[C@@H]12` [Example 171, (+)-(4aR)-(10bR)-4-methyl-8-(6-phenyl-3-pyridazinylthio)-10b-methyl-1,2,3,4,4a,5,6,10b-octahydrobenzo[f]quinolin-3-one], the results for the inhibition at 0.3 µM in test [1] and in test [2] were 63% and 43%, respectively.
With `CN1C(=O)CC[C@]2(C)c3ccc(Sc4nc(-c5ccccc5)nc5ccccc45)cc3CC[C@@H]12` [Example 172, (+)-(4aR)-(10bR)-4-methyl-8-(2-phenyl-4-quinazolinylthio)-10b-methyl-1,2,3,4,4a,5,6,10b-octahydrobenzo[f]quinolin-3-one], the values for the inhibition at 0.3 µM in test [1] and in test [2] were 36% and 55%, respectively.
In the case of `CN1C(=O)CC[C@]2(C)c3ccc(Sc4ccc5cc(F)ccc5n4)cc3CC[C@@H]12` [Example 173, (+)-(4aR)-(10bR)-4-methyl-8-(6-fluoro-2-quinolinylthio)-10b-methyl-1,2,3,4,4a,5,6,10b-octahydrobenzo[f]quinolin-3-one], in test [1], the “percent inhibition of Type II AR” value is listed as 77% and the inhibition at 0.3 µM amounted to 78%. Also, the inhibition at 0.3 µM in test [2] worked out at 65%.
For the compound `CN1C(=O)CC[C@]2(C)c3ccc(Sc4ccc5cccc(F)c5n4)cc3CC[C@@H]12` [Example 174, (+)-(4aR)-(10bR)-4-methyl-8-(8-fluoro-2-quinolinylthio)-10b-methyl-1,2,3,4,4a,5,6,10b-octahydrobenzo[f]quinolin-3-one], the inhibition at 0.3 µM in test [1] worked out at 80%; in test [2], 82%.
For the compound `CN1C(=O)CC[C@]2(C)c3ccc(Sc4nccc5sccc45)cc3CC[C@@H]12` [Example 175, (+)-(4aR)-(10bR)-4-methyl-8-(4-thieno [3,2-c]pyridylthio)-10b-methyl-1,2,3,4,4a,5,6,10b-octahydrobenzo[f]quinolin-3-on], the inhibition at 0.3 µM worked out at 40% in test [1] and 58% in test [2].
Consider `CN1C(=O)CC[C@]2(C)c3ccc(Sc4ccc5nc6ccccc6c(=O)n5n4)cc3CC[C@@H]12` [Example 176, (+)-(4aR)-(10bR)-4-methyl-8-(10-oxo-10H-2-pyridazino[6,1-b]-quinazolinylthio)-10b-methyl-1,2,3,4,4a,5,6,10b-octahydrobenzo[f]quinolin-3-one], for which the inhibition at 0.3 µM came to 15% in test [1] and 25% in test [2].
Take `CN1C(=O)CC[C@]2(C)c3ccc(Sc4nc(-c5ccccc5)cc5ccccc45)cc3CC[C@@H]12` [Example 177, (+)-(4aR)-(10bR)-4-methyl-8-(3-phenyl-1-isoquinolinylthio)-10b-methyl-1,2,3,4,4a,5,6,10b-octahydrobenzo[f]quinolin-3-one]: the inhibition at 0.3 µM came out at 15% in test [1] and 58% in test [2].
Take `COc1ccc(-c2c(-c3ccccc3)c(Sc3ccc4c(c3)CC[C@H]3N(C)C(=O)CC[C@]43C)nc3ccccc23)cc1` [Example 179, (+)-(4aR)-(10bR)-4-methyl-8-[3-phenyl-4-(4-methoxyphenyl)-2-quinolinylthio]-10b-methyl-1,2,3,4,4a,5,6, 10b-octahydrobenzo[f]quinolin-3-one]: the inhibition at 0.3 µM turned out to be 28% in test [1] and 61% in test [2].
On to `CN1C(=O)CC[C@]2(C)c3ccc(Sc4nsc5ccccc45)cc3CC[C@@H]12` [Example 180, (+)-(4aR)-(10bR)-4-methyl-8-(3-[1,2-benzisothiazolyl]thio)-10b-methyl-1,2,3,4,4a,5,6,10b-octahydrobenzo[f]quinolin-3-one], for which the inhibition at 0.3 µM in test [1] worked out at 30%; in test [2], 59%.
For `CN1C(=O)CC[C@]2(C)c3ccc(Sc4cc(-c5ccccc5)cc(-c5ccccc5)n4)cc3CC[C@@H]12` [Example 181, (+)-(4aR)-(10bR)-4-methyl-8-(2-[4,6-diphenyl]pyridylthio)-10b-methyl-1,2,3,4,4a,5,6,10b-octahydrobenzo[f]quinolin-3-one], in that order: 31% and 63%.
For `COc1cccc2sc(Sc3ccc4c(c3)CC[C@H]3N(C)C(=O)CC[C@]43C)nc12` [Example 182, (+)-(4aR)-(10bR)-4-methyl-8-(4-methoxy-2-benzothiazolylthio)-10b-methyl-1,2,3,4,4a,5,6,10b-octahydrobenzo[f]quinolin-3-one], the values for the inhibition at 0.3 µM in test [1] and in test [2] were 100% and 63%, respectively.
Take `CN1C(=O)CC[C@]2(C)c3ccc(Sc4nc5c(Br)cccc5s4)cc3CC[C@@H]12` [Example 183, (+)-(4aR)-(10bR)-4-methyl-8-(4-bromo-2-benzothiazolylthio)-10b-methyl-1,2,3,4,4a,5,6,10b-octahydrobenzo[f]quinolin-3-one]: in test [1], the “percent inhibition of Type II AR” value is reported as 87% and the inhibition at 0.3 µM was determined as 88%. Also, the inhibition at 0.3 µM in test [2] turned out to be 89%.
On to `CN1C(=O)CC[C@]2(C)c3ccc(Sc4nc5c(-c6ccccc6)cccc5s4)cc3CC[C@@H]12` [Example 184, (+)-(4aR)-(10bR)-4-methyl-8-(4-phenyl-2-benzothiazolylthio)-10b-methyl-1,2,3,4,4a,5,6,10b-octahydrobenzo[f]quinolin-3-one], for which the figures for the inhibition at 0.3 µM in test [1] and in test [2] were 81% and 73%, respectively.
With `Cc1ccc(C)c2sc(Sc3ccc4c(c3)CC[C@H]3N(C)C(=O)CC[C@]43C)nc12` [Example 185, (+)-(4aR)-(10bR)-4-methyl-8-(4,7-dimethyl-2-benzothiazolylthio)-10b-methyl-1,2,3,4,4a,5,6,10b-octahydrobenzo[f]-quinolin-3-one], the inhibition at 0.3 µM in test [1] worked out at 90%; in test [2] it was 88%.
Consider `CCCc1cccc2sc(Sc3ccc4c(c3)CC[C@H]3N(C)C(=O)CC[C@]43C)nc12` [Example 186, (+)-(4aR)-(10bR)-4-methyl-8-(4-propyl-2-benzothiazolylthio)-10b-methyl-1,2,3,4,4a,5,6,10b-octahydrobenzo[f]quinolin-3-one], for which the inhibition at 0.3 µM in test [1] came to 79%; in test [2], 90%.
For `CCc1cccc2sc(Sc3ccc4c(c3)CC[C@H]3N(C)C(=O)CC[C@]43C)nc12` [Example 187, (+)-(4aR)-(10bR)-4-methyl-8-(4-ethyl-2-benzothiazolylthio)-10b-methyl-1,2,3,4,4a,5,6,10b-octahydrobenzo[f]quinolin-3-one], in that order: 94% and 93%.
On to `CN1C(=O)CC[C@]2(C)c3ccc(Sc4nc5c(OC(F)(F)F)cccc5s4)cc3CC[C@@H]12` [Example 188, (+)-(4aR)-(10bR)-4-methyl-8-(4-trifluoromethoxy-2-benzothiazolylthio)-10b-methyl-1,2,3,4,4a,5,6,10b-octahydrobenzo[f]-quinolin-3-one], for which the inhibition at 0.3 µM in test [1] was found to be 78%; in test [2], 88%.
For `CN1C(=O)CC[C@]2(C)c3ccc(Sc4nc5c(C(C)(C)C)ccc(C(C)(C)C)c5s4)cc3CC[C@@H]12` [Example 189, (+)-(4aR)-(10bR)-4-methyl-8-[4,7-di(t-butyl)-2-benzothiazolylthio]-10b-methyl-1,2,3,4,4a,5,6,10b-octahydrobenzo[f]-quinolin-3-one], in that order: 19% and 84%.
For `Cc1ccc(C(F)(F)F)c2sc(Sc3ccc4c(c3)CC[C@H]3N(C)C(=O)CC[C@]43C)nc12` [Example 190, (+)-(4aR)-(10bR)-4-methyl-8-(4-methyl-7-trifluoromethyl-2-benzothiazolylthio)-10b-methyl-1,2,3,4,4a,5,6,10b-octahydrobenzo[f]quinolin-3-one], the inhibition at 0.3 µM in test [1] turned out to be 26%; in test [2], 76%.
For `CN1C(=O)CC[C@]2(C)c3ccc(SCc4cc5ccccc5cn4)cc3CC[C@@H]12` [Example 191, (+)-(4aR)-(10bR)-8-(3-isoquinolinylmethylthio)-4,10b-dimethyl-1,2,3,4,4a,5,6,10b-octahydrobenzo[f]quinoline-3-one], in test [1], the “percent inhibition of Type II AR” value was 28%. Moreover, the results for the inhibition at 0.3 µM in test [1] and in test [2] were 19% and 65%, respectively.

For the origin of these results see patent US5622962A, “5α-reductase inhibitors” (priority 1995, dated 1997).
